Laboratory results reported in patent US9284309B2, “Di- and tri-heteroaryl derivatives as inhibitors of protein aggregation” (Neuropore Therapies, Inc., priority 2012, dated 2016).

What follows are molecules tested against T1, α-synuclein (Homo sapiens, UniProt P37840) (assay: calcein assay of membrane integrity (reversal of α-synuclein-mediated disruption of cell membranes, FLIPR)). Conditions: 0.01 μM test compound; neuronal cells infected with LV-α-synuclein, 24 h treatment in serum free media, calcein retention.
T1 construct: expressed in transfected cells
Format: cell-based
Experimental: (b) Neuronal Activity/Integrity. Toxic aggregates of α-synuclein disrupt the integrity of cell membranes. The disruptive effect of α-synuclein and the ability of test compounds to reverse the α-synuclein-mediated disruption of cell membranes are measured using calcein. Calcein is a fluorescent marker that is retained in healthy cells but is not retained in cells with diminished cellular integrity. To ascertain the effects on neuronal activity, cells are infected with LV-α-synuclein for 24 h, treated with test compound at a range of concentrations, for example 0.01-10 μM, for 24 h in serum free media, loaded with Fluo-4 or calcein, and analyzed by FLIPR assay to determine Ca^2+ and calcein levels. […] Test compounds are evaluated for the ability to restore concentrations of Ca^2+ to those in cells not infected with LV-α-synuclein. […] Test compounds are evaluated, in a concentration-dependent manner, for their ability to reverse the effect of α-synuclein on levels of calcein.
For CCCc1nnc(C(Cc2c[nH]c3ccccc23)NC(=O)c2cnc(N3CCN(C)CC3)s2)s1 (stereo not drawn) [Example 9, N-(2-(1H-indol-3-yl)-1-(5-propyl-1,3,4-thiadiazol-2-yl)ethyl)-2-(4-methylpiperazin-1-yl)thiazole-5-carboxamide], the “Percent reversal of α-Syn mediated disruption of cell integrity” value (from here on “Percent reversal”) was 187%.
CCc1csc(C(Cc2c[nH]c3ccccc23)NC(=O)c2cnc(N3CCN(C)CC3)s2)n1 (stereo not drawn) [Example 6, N-(1-(4-ethylthiazol-2-yl)-2-(1H-indol-3-yl)ethyl)-2-(4-methylpiperazin-1-yl)thiazole-5-carboxamide] was tested, and the “Percent reversal” value was 137%.
With CCCc1nnc(C(Cc2c[nH]c3ccccc23)NC(=O)c2cnc(N3CCN(C)CC3)s2)[nH]1 (stereo not drawn) [Example 10, N-(2-(1H-indol-3-yl)-1-(5-propyl-4H-1,2,4-triazol-3-yl)ethyl)-2-(4-methylpiperazin-1-yl)thiazole-5-carboxamide] the “Percent reversal” value was 115%.
In the case of CCCCNNC(=O)C(Cc1c[nH]c2ccccc12)NC(=O)c1cnc(N2CCN(C)CC2)s1 (stereo not drawn) [Example 8, N-(1-(2-butylhydrazinyl)-3-(1H-indol-3-yl)-1-oxopropan-2-yl)-2-(4-methylpiperazin-1-yl)thiazole-5-carboxamide], the “Percent reversal” value is reported as 135%.
In the case of CCCCNC(=N)C(Cc1c[nH]c2ccccc12)NC(=O)c1cnc(N2CCN(C)CC2)s1 (stereo not drawn) [Example 7, N-(1-(butylamino)-1-imino-3-(1H-indol-3-yl)propan-2-yl)-2-(4-methylpiperazin-1-yl)thiazole-5-carboxamide], the “Percent reversal” value is reported as 189%.
In the case of CCCCn1nnc(C(Cc2c[nH]c3ccccc23)NC(=O)c2cnc(N3CCN(C)CC3)s2)n1 (stereo not drawn) [Example 5, N-(1-(2-butyl-2H-tetrazol-5-yl)-2-(1H-indol-3-yl)ethyl)-2-(4-methylpiperazin-1-yl)thiazole-5-carboxamide], the “Percent reversal” value is reported as 110%.
